Patent US20250255867A1 (Kadmon Corporation, LLC, priority 2022, published 2025)
Like-named read-outs stand apart in the source and are kept apart here.

Tests used:
Assay type in all cases: in vivo, human
patients with cGVHD [1] = assay: Example 1: corticosteroid and calcineurin inhibitor sparing; conditions: for Participants who discontinued CNI, number / Participants who discontinued CNI, percent / Participants with reduction in CNI dose, number / Participants with reduction in CNI dose, percent: baseline up to EOT
Protocol: Corticosteroid sparing. […] The mean corticosteroid dose was reduced by 45%. The median time to corticosteroid therapy discontinuation was 29 weeks (range, 8-77 weeks).
Change from Baseline in Corticosteroids Dose. An EOT visit was performed within 3 days after the participant's last dose of study drug. Baseline value was defined as valid and last non-missing value obtained within 28 days prior to participant receiving first study medication. The mITT population was analyzed, with the ‘overall number of participants analyzed’=participants with available data for this outcome measure.
Change from Baseline in Calcineurin Inhibitor (CNI). Calcineurin inhibitors included systemic tacrolimus and cyclosporine. Number of participants who took CNI at Baseline and had reduction and discontinuation in CNI use as compared to Baseline during the study are reported in this outcome measure. EOT visit was performed within 3 days after the participant's last dose of study drug. Baseline value was defined as valid and last non-missing value obtained within 28 days prior to participant receiving first study medication.

[2] = Example 1: plasma pharmacokinetics (Cmax, Tmax, AUC0-6 hr) of belumosudil and metabolites; conditions: for Tmax: human, oral, read-out: Time of the Maximum Observed Plasma Concentration (Tmax), Median (Full Range); for Maximum Observed Plasma Concentration (Cmax), Geometric Mean (Geometric Coefficient of Variation) / Tmax: plasma
Protocol: Cmax was the maximum observed plasma concentration, obtained by a non-compartmental analysis. […] Timeframe: Cycles 1 and 2: pre-dose (0 hour), 1, 2, 3, 4, 5, and 6 hours post-dose on Day 1. […] Here, ‘number analyzed’=participants with available data for each specified category.
Tmax was defined as time to reach maximum observed plasma concentration, obtained by a non-compartmental analysis. […] Timeframe: Cycles 1 and 2: pre-dose (0 hour), 1, 2, 3, 4, 5, and 6 hours post-dose on Day 1. Analysis was performed on PK population. Here, ‘number analyzed’=participants with available data for each specified category.
AUC0-6 hr was defined as area under the plasma concentration versus time curve from time 0 to 6 hours post-dose, obtained by a non-compartmental analysis from the concentration-time data. […] Timeframe: Cycles 1 and 2: pre-dose (0 hour), 1, 2, 3, 4, 5, and 6 hours post-dose on Day 1. Analysis was performed on PK population. Here, ‘number analyzed’=participants with available data for each specified category.

patients with cGVHD [3] = assay: Example 1: Lee cGVHD Symptom Scale (LSS)
Protocol: All responses were assessed by the investigators.
QOL assessment. […] Thirty-five percent of all patients (37% of responders and 32% of nonresponders) reported a clinically meaningful improvement in LSS score on consecutive assessments.
Change From Baseline in Overall Score on Lee cGvHD Symptom Scale at Specified Time Points. Lee cGVHD symptom scale, a patient-reported symptom scale used to measure symptom burden and has 7 subscales (Skin, Eyes and Mouth, Breathing, Eating and Digestion, Muscles and Joints, Energy, and Mental and Emotional) with ratings as follows: 0—Not at all, 1—Slightly, 2—Moderately, 3—Quite a bit, 4—Extremely, with lower values representing better outcome. Score for each subscale was normalized to a score ranged from 0 to 100, where higher score-worse symptoms. An overall score was calculated as average of these 7 subscales. EOT visit was performed within 3 days after the participant's last dose of study drug. Baseline value was defined as valid and last non-missing value obtained within 28 days prior to participant receiving first study medication. […] Analysis was performed on mITT population. Here, ‘number analyzed’=participants with available data for each specified category. Here, ‘0’ in the number analyzed field signifies that none of the participants were available for the analysis at the specified time points.

[4] = Total N=54, listed as belumosudil
[5] = Cohort 1: Belumosudil 200 mg QD, Cycle 1 Day 1
[6] = Cohort 1: Belumosudil 200 mg QD, Cycle 2 Day 1
[7] = Cohort 2: Belumosudil 200 mg BID, Cycle 1 Day 1
[8] = Cohort 2: Belumosudil 200 mg BID, Cycle 2 Day 1
[9] = Cohort 3: Belumosudil 400 mg QD, Cycle 1 Day 1
[10] = Cohort 3: Belumosudil 400 mg QD, Cycle 2 Day 1

Q: Which results are given for `CC(C)NC(=O)COc1cccc(-c2nc(Nc3ccc4[nH]ncc4c3)c3ccccc3n2)c1` [Belumosudil, 2-{3-[4-(1H-indazol-5-ylamino)-2-quinazolinyl]phenoxy}-N-(propan-2-yl) acetamide]?
A: CS discontinuation (patients with cGVHD [1]; Cohort 1 200 mg QD): 4 (24, 7 to 50) %; Mean percent change in CS dose from baseline, nonresponder (patients with cGVHD [1]; Cohort 1 200 mg QD): −26%; Mean percent change in CS dose from baseline, overall (patients with cGVHD [1]; Cohort 1 200 mg QD): −50%; Mean percent change in CS dose from baseline, responder (patients with cGVHD [1]; Cohort 1 200 mg QD): −63%; Proportion with CS reduction (patients with cGVHD [1]; Cohort 1 200 mg QD): 13 (76, 50 to %; Change From Baseline in Corticosteroids Dose, Mean (Standard Deviation) (patients with cGVHD [1]; Cohort 1 200 mg QD, baseline to end of treatment): −0.110 (0.101) milligrams per kilogram per day; Participants who discontinued CNI, number (patients with cGVHD [1]; Cohort 1: 200 mg QD): 0; Participants who discontinued CNI, percent (patients with cGVHD [1]; Cohort 1: 200 mg QD): (0%); Participants with reduction in CNI dose, number (patients with cGVHD [1]; Cohort 1: 200 mg QD): 5; Participants with reduction in CNI dose, percent (patients with cGVHD [1]; Cohort 1: 200 mg QD): (83%); CS discontinuation (patients with cGVHD [1]; Cohort 2 200 mg BID): 2 (13, 2 to 38) %; Mean percent change in CS dose from baseline, nonresponder (patients with cGVHD [1]; Cohort 2 200 mg BID): −37%; Mean percent change in CS dose from baseline, overall (patients with cGVHD [1]; Cohort 2 200 mg BID): −36%; Mean percent change in CS dose from baseline, responder (patients with cGVHD [1]; Cohort 2 200 mg BID): −36%; Proportion with CS reduction (patients with cGVHD [1]; Cohort 2 200 mg BID): 9 (56, 30 to 80) %; Participants who discontinued CNI, number (patients with cGVHD [1]; Cohort 2: 200 mg BID): 1; Participants who discontinued CNI, percent (patients with cGVHD [1]; Cohort 2: 200 mg BID): 17%; Participants with reduction in CNI dose, number (patients with cGVHD [1]; Cohort 2: 200 mg BID): 5; Participants with reduction in CNI dose, percent (patients with cGVHD [1]; Cohort 2: 200 mg BID): 83%; CS discontinuation (patients with cGVHD [1]; Cohort 3 400 mg QD): 4 (19, 5 to 42) %; Mean percent change in CS dose from baseline, nonresponder (patients with cGVHD [1]; Cohort 3 400 mg QD): −19%; Mean percent change in CS dose from baseline, overall (patients with cGVHD [1]; Cohort 3 400 mg QD): −47%; Mean percent change in CS dose from baseline, responder (patients with cGVHD [1]; Cohort 3 400 mg QD): −63%; Proportion with CS reduction (patients with cGVHD [1]; Cohort 3 400 mg QD): 14 (67, 43 to %; Participants who discontinued CNI, number (patients with cGVHD [1]; Cohort 3: 400 mg QD): 3; Participants who discontinued CNI, percent (patients with cGVHD [1]; Cohort 3: 400 mg QD): 27%; Participants with reduction in CNI dose, number (patients with cGVHD [1]; Cohort 3: 400 mg QD): 6; Participants with reduction in CNI dose, percent (patients with cGVHD [1]; Cohort 3: 400 mg QD): 55%; Mean percent change in CS dose from baseline, nonresponder (patients with cGVHD [1]; Total): −26%; Mean percent change in CS dose from baseline, overall (patients with cGVHD [1]; Total): −45%; Mean percent change in CS dose from baseline, responder (patients with cGVHD [1]; Total): −55%; CS discontinuation (patients with cGVHD [1]; Total N=54): Approximately 20%; CS discontinuation (patients with cGVHD [1]; Total N=54, listed as KD025): 10 (19, 9 to 31) %; Proportion with CS reduction (patients with cGVHD [1]; Total N=54, listed as KD025): 36 (67, 53 to %; CS discontinuation (patients with cGVHD [1]; [4]): 19%; Proportion with CS reduction (patients with cGVHD [1]; [4]): 67%; Mean corticosteroid dose reduction (patients with cGVHD [1]; all patients): 45%; Mean corticosteroid dose reduction (patients with cGVHD [1]; nonresponders): 26%; Median time to corticosteroid therapy discontinuation (patients with cGVHD [1]; range, 8-77 weeks): 29 weeks; Mean corticosteroid dose reduction (patients with cGVHD [1]; responders): 55%; Area Under the Plasma Concentration Versus Time Curve From Time 0 to 6 Hours Post-dose (AUC0-6 hr), Geometric Mean (Geometric Coefficient of Variation) [2, 5]: 8350 hours*nanograms per milliliter; Maximum Observed Plasma Concentration (Cmax), Geometric Mean (Geometric Coefficient of Variation) [2, 5]: 2500 (60.1%) nanograms per milliliter; Area Under the Plasma Concentration Versus Time Curve From Time 0 to 6 Hours Post-dose (AUC0-6 hr), Geometric Mean (Geometric Coefficient of Variation) [2, 6]: 7090 (95.9%) hours*nanograms per milliliter; Maximum Observed Plasma Concentration (Cmax), Geometric Mean (Geometric Coefficient of Variation) [2, 6]: 2020 (101%) nanograms per milliliter; Area Under the Plasma Concentration Versus Time Curve From Time 0 to 6 Hours Post-dose (AUC0-6 hr), Geometric Mean (Geometric Coefficient of Variation) [2, 7]: 4960 hours*nanograms per milliliter; Maximum Observed Plasma Concentration (Cmax), Geometric Mean (Geometric Coefficient of Variation) [2, 7]: 1400 (98.5%) nanograms per milliliter; Area Under the Plasma Concentration Versus Time Curve From Time 0 to 6 Hours Post-dose (AUC0-6 hr), Geometric Mean (Geometric Coefficient of Variation) [2, 8]: 7190 (115%) hours*nanograms per milliliter; Maximum Observed Plasma Concentration (Cmax), Geometric Mean (Geometric Coefficient of Variation) [2, 8]: 1890 (120%) nanograms per milliliter; Area Under the Plasma Concentration Versus Time Curve From Time 0 to 6 Hours Post-dose (AUC0-6 hr), Geometric Mean (Geometric Coefficient of Variation) [2, 9]: 11500 hours*nanograms per milliliter; Maximum Observed Plasma Concentration (Cmax), Geometric Mean (Geometric Coefficient of Variation) [2, 9]: 2960 (69.7%) nanograms per milliliter; Area Under the Plasma Concentration Versus Time Curve From Time 0 to 6 Hours Post-dose (AUC0-6 hr), Geometric Mean (Geometric Coefficient of Variation) [2, 10]: 12000 hours*nanograms per milliliter; Maximum Observed Plasma Concentration (Cmax), Geometric Mean (Geometric Coefficient of Variation) [2, 10]: 3270 (63.0%) nanograms per milliliter; Tmax ([2]; 200 mg, Cohort 1: Belumosudil 200 mg QD, Cycle 1 Day 1): 2.12 h; Tmax ([2]; 200 mg, Cohort 1: Belumosudil 200 mg QD, Cycle 2 Day 1): 2.53 h; Tmax ([2]; 200 mg, Cohort 2: Belumosudil 200 mg BID, Cycle 1 Day 1): 3.43 h; Tmax ([2]; 200 mg, Cohort 2: Belumosudil 200 mg BID, Cycle 2 Day 1): 2.47 h; Tmax ([2]; 400 mg, Cohort 3: Belumosudil 400 mg QD, Cycle 1 Day 1): 3.03 h; Tmax ([2]; 400 mg, Cohort 3: Belumosudil 400 mg QD, Cycle 2 Day 1): 2.66 h; Clinically significant improvement (LSS), nonresponder (patients with cGVHD [3]; Cohort 1 200 mg QD): 1/6 (17, 0.4 to %; Clinically significant improvement (LSS), responder (patients with cGVHD [3]; Cohort 1 200 mg QD): 8/11 (73, 39 to %; Clinically significant improvement (LSS), overall (patients with cGVHD [3]; Cohort 1 200 mg QD, decrease ≥7 points): 9 (53, 28 to 77) %; Clinically significant improvement (LSS), nonresponder (patients with cGVHD [3]; Cohort 2 200 mg BID): 4/5 (80, 28 to %; Clinically significant improvement (LSS), overall (patients with cGVHD [3]; Cohort 2 200 mg BID): 7 (44, 20 to 70) %; Clinically significant improvement (LSS), responder (patients with cGVHD [3]; Cohort 2 200 mg BID): 3/11 (27, 6 to %; Clinically significant improvement (LSS), nonresponder (patients with cGVHD [3]; Cohort 3 400 mg QD): 2/8 (25, 3 to %; Clinically significant improvement (LSS), overall (patients with cGVHD [3]; Cohort 3 400 mg QD): 11 (52, 30 to %; Clinically significant improvement (LSS), responder (patients with cGVHD [3]; Cohort 3 400 mg QD): 9/13 (69, 39 to %; Clinically significant improvement (LSS), nonresponder (patients with cGVHD [3]; Total): 7/19 (37, 16 to %; Clinically significant improvement (LSS), responder (patients with cGVHD [3]; Total): 20/35 (57, 39 to %; Clinically significant improvement (LSS), overall (patients with cGVHD [3]; Total N=54, listed as KD025): 27 (50, 36 to %; Clinically significant improvement (LSS), overall (patients with cGVHD [3]; [4]): 50%
